Measurements: article PMC6792352, “Limited Chemical Structural Diversity Found to Modulate Thyroid Hormone Receptor in the Tox21 Chemical Library” (Environmental Health Perspectives, 2019)
Structures can show the parent of a compound that is named as a salt.

Assay: in vitro
Settings: rat, gh3-tre-luc cells

Structure (SMILES)	CC50 at 24 h (AC50 (uM) modified / 1000) [µM]	further results
C[C@@H](O)[C@@H]1NC(=O)[C@H](CCCCN)NC(=O)[C@@H](Cc2c[nH]c3ccccc23)NC(=O)[C@H](Cc2ccccc2)NC(=O)[C@@H](NC(=O)[C@H](N)Cc2ccccc2)CSSC[C@@H](C(=O)N[C@H](CO)[C@@H](C)O)NC1=O [Octreotide]	> 50	
NCCc1cc(O)c(O)cc1O [Oxidopamine hydrochloride]		CC50 at 24 h (AC50 (uM) modified / 1000, Tox21_110001=Tox21_111324, viability, 1 nM T3 present, 24 h): 45.2 µM
CC1=CC(=O)CC(C)(C)C1 [Isophorone]	> 90	
NNC(N)=S [Thiosemicarbazide]	> 100	
CCCC(=O)Cl [Butyryl chloride]		CC50 at 24 h (AC50 (uM) modified / 1000, Tox21_110001=Tox21_200294, viability, 1 nM T3 present, 24 h): > 90 µM
O=C(O)CCCCCCCCC(=O)O [Decanedioic acid]	> 90	
Cc1cccc(C(C)(C)C)c1O [2-tert-Butyl-6-methylphenol]	> 90	
CNC1=Nc2ccc(Cl)cc2C(c2ccccc2)=[N+]([O-])C1 [Chlordiazepoxide]		CC50 at 24 h (AC50 (uM) modified / 1000, Tox21_110001=Tox21_111567, viability, 1 nM T3 present, 24 h): > 50 µM
CN(C)CCCNCCC#N [3-{[3-(Dimethylamino)propyl]amino}propanenitrile]	> 90	
CC(C)(C)C(O)/C=C/c1ccc2c(c1)OCO2 (stereo not shown) [Stiripentol]	> 50	
CCC(Oc1ccccc1)C(=O)N[C@@H]1C(=O)N2[C@@H]1SC(C)(C)[C@@H]2C(=O)O (stereo partly shown) [Propicillin]	> 50	
C1COC(NC(C2CC2)C2CC2)=N1 [Rilmenidine]	> 50	
COc1cc(N)c(Cl)cc1C(=O)NC1CCN(Cc2ccccc2)CC1 [Clebopride maleate]	> 20	
C[Si]1(C)O[Si](C)(C)O[Si](C)(C)O[Si](C)(C)O1 [Octamethylcyclotetrasiloxane]	> 90	
C=COCCCCO [4-(Ethenyloxy)butan-1-ol]	> 90	
CC(=O)SCC(CC(=O)c1ccc(C)cc1)C(=O)O (stereo not shown) [Esonarimod]	> 50	
c1ccc2c(c1)Sc1ccccc1N2CCN1CCCC1 [Pyrathiazine]	19.5	
CC(C)c1ccc(CO)cc1 [4-Isopropylbenzyl alcohol]	> 90	
CCOC(=O)Nc1ccc(NCc2ccc(F)cc2)nc1N [Flupirtine maleate]	> 50	

Structure (SMILES)	CC50 at 24 h (AC50 (uM) modified / 1000) [µM]	further results
CC1=CCC2C(C1)C2(C)C (stereo not shown) [3-Carene]	> 90	
CC(C)COC(=O)OCN1C(=O)CN(CCN2CC(=O)N(COC(=O)OCC(C)C)C(=O)C2)CC1=O [Sobuzoxane]	> 50	
N=C(N)N/N=C/c1c(Cl)cccc1Cl [Guanabenz]	20.8	
C=CN1CCCCCC1=O [1-Ethenylazepan-2-one]	> 90	
Nc1ccc(C=Cc2ccc(N)cc2S(=O)(=O)O)c(S(=O)(=O)O)c1 [4,4'-Diamino-2,2'-stilbenedisulfonic acid]	> 50	
C=CCCCC [1-Hexene]	> 100	
CCNc1nc(Cl)nc(NC(C)C)n1 [Atrazine]	> 90	
O=C(Oc1ccccc1)c1ccc(O)cc1 [Phenylparaben]	> 90	
CC1(C)[C@H]2CC[C@](C)(C2)[C@H]1O [(1R)-endo-(+)-Fenchyl alcohol]	> 90	
c1cncc([C@@H]2CCCCN2)c1 [L-3-(2'-Piperidyl)pyridine]	> 90	
CCC(C)(C)c1cc(O)c(C(C)(C)CC)cc1O [2,5-Bis(2-methylbutan-2-yl)benzene-1,4-diol]	53.8	
CCCCOC(=O)C(C)Oc1ccc(Oc2ccc(C(F)(F)F)cn2)cc1 (stereo not shown) [Fluazifop-butyl]	> 90	
Cn1sccc1=O [2-Methyl-4-isothiazolin-3-one hydrochloride]	30.8	
CCCCCCCCCCCCOCCCN [Laurixamine]	> 50	
COC(=O)c1c(C(F)F)nc(C(F)(F)F)c(C2=NCCS2)c1CC(C)C [Thiazopyr]		CC50 at 24 h (AC50 (uM) modified / 1000, Tox21_110001=Tox21_300822, viability, 1 nM T3 present, 24 h): > 90 µM
O=S(O)CNc1ccc(S(=O)(=O)c2ccc(NCS(=O)O)cc2)cc1 [Adesulfone sodium]	> 50	
CC(C(=O)O)c1ccc(/C=C2\CCCCC2=O)cc1 (stereo not shown) [Pelubiprofen]	> 50	
C/C=C/c1ccc(OCC)c(O)c1 [trans-2-Ethoxy-5-(1-propenyl)phenol]	> 90	
